Patent US20190208778A1, “INSECT REPELLENT SURFACE COMPOSITION” (ENVANCE TECHNOLOGIES, LLC, priority 2012, published 2019)

Tested on: Musca domestica
Test: House fly surface repellent bioassay (treated floor tile bait stations)
Type: in vivo
Conditions: house flies
Method: 100 adult house flies (Musca domestica) were placed into the assay then exposed to treated bait stations, a control and test treatment. Fly response to the bait stations were recorded at predetermined time points with a video camera. Percent repellency was calculated and comparisons between treatments were made. All test house fly specimens were taken from in-house laboratory reared colonies, and were confirmed alive and in good condition prior to testing. No specimens showing any visible signs of stress, physical damage or pathogen infection were used in the study. When applicable a 1:1 male to female sex ratio was used to ensure equal susceptibility. The test arena was assembled and prepared prior to test initiation. The test arena consisted of a large 73.66 cm×73.66 cm×73.66 cm PVC frame work fitted with Thrips screening. At the top of the enclosed arena a USB powered video camera was suspended and centered over a 62.87 cm×62.87 cm section of white ceiling tile divided (marked with pencil) into equal quadrants. The bait stations were constructed as follows: A 1⁄4'' diameter hole was drilled in the center of a 10.8 cm by 10.8 cm white glazed clay tile. A 50 ml Falcon tube cap was affixed to the bottom of the tile over the hole to create a reservoir for the bait to be contained. Bait was pipetted into the reservoir then a cotton wick in inserted into the hole preventing flies from entering the reservoir and allowing bait to wick to the surface. The bait was at a 4:1:1 ratio of water, sugar, and coffee creamer. The chemical application method was as follows: Material was pipette applied to tile surface and allowed approximately 1 hour to dry. The chemical volume applied was 34 μl. Fly specimens were exposed for 24 hours. Assays were performed with a minimum of three replicates. The Tyra Tech Insect repellent surface cleaning/washing composition was comprised of 14.8% Active Ingredient (AI) blend and 85.2% other ingredients. It was confirmed that video cameras were appropriately viewing the center of the ceiling tile with a computer and computer program (such as […]). Flies were anesthetized with CO2 and then 100 flies were placed into a clean container. Insects were allowed to recover and acclimate to testing conditions for 1 hour prior to test initiation by placing and opening container with flies into assembled assay arena and allowing flies to disperse. All surfaces of bait station were cleaned with ethanol and allowed to dry. A pipette were used to treat the tile surface with the test material and treatment was spread over entire surface with pipette tip; material was allowed to dry for approximately 1 hour prior to test initiation. When dry, 5 ml of bait was pipetted into the reservoir. A cotton wick was inserted into the hole to ensuring that the top of the wick sits flush with the tile surface. A treated and a control bait station was placed into the test arena, one each centered within a randomly designated quadrant opposite of each other into a testing arena. Cameras were allowed to capture fly response over a 24 hour time period. Images were transferred to computer and data were analyzed. Photos were taken at each of the following time points: 15 minutes, 30 minutes, 1, 2, 3, 4, 5, 6, 7, 8, 12, 18 and 24 hours post introduction of treatment. At the conclusion of the test the image files were reviewed and the number of flies at each bait station was counted and recorded for both treatment and control. Average percent repellency was used as a standard measure of repellency of the treatments against insect species. Percent repellency was calculated for each treatment replicate by the following formula: Mean percent repellency for each treatment based on the data of the replicates at the given observation time points: Repellency between treatments was then compared using SAS version 9.3 to calculate the repeated measures ANOVA with time as repeated measure. Tukey's correction was used to ensure a remained at 0.05.

CCN(CC)C(=O)c1cccc(C)c1 [DEET]
Average mean percent repellency over 24 hours: 57.1% | Median mean percent repellency over 24 hours: 61.3% | statistical comparison of repellency between treatments (repeated measures ANOVA, Tukey's correction): significantly less repellent than any other treatment | mean percent repellency (time 0.25 h post introduction): 66.7% | mean percent repellency (time 1 h): 75.0% | mean percent repellency (time 2 h): 0.0% | mean percent repellency (time 3 h): 50.0% | mean percent repellency (time 4 h): 50.0% | mean percent repellency (time 5 h): 62.5% | mean percent repellency (time 6 h): 22.2% | mean percent repellency (time 7 h): 60.0% | mean percent repellency (time 8 h): 70.6% | mean percent repellency (time 12 h): 44.4% | mean percent repellency (time 18 h): 83.3% | mean percent repellency (time 24 h): 100.0%
